In patent US20250171431A1, “HETEROCYCLIC INHIBITORS OF IGF-1R FOR TREATMENT OF DISEASE” (HORIZON THERAPEUTICS IRELAND DAC, priority 2023, published 2025):

Molecular target: IGF-1R (Homo sapiens (Human), UniProt P08069)
Test: Example B-1: IGF-1R Assay (PC3 cells, IGF1 stimulation, AlphaLISA)
Type: cell-based
Details: 200 ng/mL IGF1 stimulation, read-out: Biological Activity against IGF-1R IC50
Description: 50K PC3 cells were seeded on day 1 in 50 μL of media in 96-well plate and incubated overnight at 37° C., 5% CO2. On day 2, all cells were expected to be at 80-90% confluency. Cells were starved for two hours by changing the media to 90 μL of EMEM serum-free media and incubated for 2 hours. Next, cells were treated with 10 μL of 10× concentrated and 3× serially diluted compounds for two hours. It makes 1× of compounds in 100 μL media. This was followed by stimulation of cells with 11×IGF1 for 30 min in 10 μL of serum-free EMEM media at the final concentration of 200 ng/mL.
The media was removed and replaced by 50 μL of 1× lysis buffer from the AlphaLISA kit (with 1× of cOmplete™ protease inhibitor). The plates were sealed, and cells were allowed to lyse for 10 min in the shaker before storing the plate at −20° C. until used. The AlphaLISA assay with processed cell lysates were performed as described in the protocol. Briefly, 10 μL of the undiluted sample were loaded to 384 well Optiplates and 5 μL of the acceptor mix (as described in the AlphaLISA kit) was added to each well. The plates were sealed and briefly vortexed followed by the incubation at RT for 3 hours. In the dark, 5 μL of donor mix was added to each well. All plates were sealed and stored at RT overnight. The plates were read in EnVision reader using standard AlphaLISA settings.
Compound activity was analyzed using CBIS data analysis suite (ChemInnovation, CA). Percentage inhibition was calculated using the following formula: % Inhibition=100%×(1−(mean RLU of test sample−mean RLU of vehicle control)/(mean RLU of EC80 control−mean RLU of vehicle control)). The activity for representative examples of the invention is shown in the following table, wherein A: IC50≤500 nM; B: 500 nM<IC50≤2 μM; C: 2 μM<IC50≤10 μM; D: IC50>10 μM.

Sequence of IGF-1R (P08069 31-1367): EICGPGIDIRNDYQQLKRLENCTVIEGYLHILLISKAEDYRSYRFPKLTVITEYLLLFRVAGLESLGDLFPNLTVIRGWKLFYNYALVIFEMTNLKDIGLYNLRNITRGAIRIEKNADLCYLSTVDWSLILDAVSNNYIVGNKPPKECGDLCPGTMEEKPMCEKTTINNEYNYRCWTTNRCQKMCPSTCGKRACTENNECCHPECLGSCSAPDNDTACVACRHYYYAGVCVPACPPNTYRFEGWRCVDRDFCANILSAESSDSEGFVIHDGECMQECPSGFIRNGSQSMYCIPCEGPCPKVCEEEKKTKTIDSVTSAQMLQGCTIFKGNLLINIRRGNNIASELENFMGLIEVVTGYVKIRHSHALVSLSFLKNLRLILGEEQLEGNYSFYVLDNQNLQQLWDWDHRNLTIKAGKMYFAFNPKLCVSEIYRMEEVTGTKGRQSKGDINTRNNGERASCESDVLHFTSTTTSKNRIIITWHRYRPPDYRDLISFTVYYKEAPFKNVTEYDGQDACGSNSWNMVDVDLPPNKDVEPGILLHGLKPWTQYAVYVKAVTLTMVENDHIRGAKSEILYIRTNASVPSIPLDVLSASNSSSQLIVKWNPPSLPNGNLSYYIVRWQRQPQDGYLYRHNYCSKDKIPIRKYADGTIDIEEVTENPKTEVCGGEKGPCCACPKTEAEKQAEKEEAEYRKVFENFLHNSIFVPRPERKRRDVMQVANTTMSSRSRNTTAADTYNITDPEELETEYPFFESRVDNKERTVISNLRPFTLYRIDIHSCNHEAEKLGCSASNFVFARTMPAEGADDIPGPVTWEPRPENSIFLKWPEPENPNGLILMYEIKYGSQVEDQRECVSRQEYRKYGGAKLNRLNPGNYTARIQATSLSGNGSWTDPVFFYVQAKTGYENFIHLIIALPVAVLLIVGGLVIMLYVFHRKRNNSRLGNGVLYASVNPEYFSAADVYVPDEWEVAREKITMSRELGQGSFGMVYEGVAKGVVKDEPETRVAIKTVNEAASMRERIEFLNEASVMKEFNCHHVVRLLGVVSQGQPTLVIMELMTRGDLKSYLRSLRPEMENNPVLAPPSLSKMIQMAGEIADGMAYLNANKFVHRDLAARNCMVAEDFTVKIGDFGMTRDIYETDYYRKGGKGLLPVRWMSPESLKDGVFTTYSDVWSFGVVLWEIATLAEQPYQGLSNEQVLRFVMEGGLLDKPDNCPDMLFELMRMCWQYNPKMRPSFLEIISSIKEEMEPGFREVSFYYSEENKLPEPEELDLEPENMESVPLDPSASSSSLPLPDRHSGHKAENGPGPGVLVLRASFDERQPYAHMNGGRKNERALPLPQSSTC

Molecule | IC50 [nM]
7-(2-{3-methoxy-4-[(1s,3s)-3- (dimethylamino)cyclobutoxy] phenylamino}-4- pyrimidinylamino)-2,2- dimethyl-2,4-dihydro-1-oxa- 4,5-diaza-3-naphthalenone [Compound 288] | 500 to 2000
COc1cc(Nc2nccc(Nc3cnc4ccccc4c3)n2)ccc1N1CCC(N2CCN(C)CC2)CC1 [Compound 2, 2-{3-methoxy-4-[4-(4-methyl-1-piperazinyl)-1-piperidyl]phenylamino}-4-(3-quinolylamino)pyrimidine] | ≤ 500
COc1cc(Nc2nccc(Nc3ccc4c(n3)CC3CCC4N3C)n2)ccc1OCCCN1CCCCC1 (stereo not shown) [Compound 4, 2-[3-methoxy-4-(3-piperidinopropoxy)phenylamino]-4-(12-methyl-6,12-diazatricyclo[7.2.1.0^2,7]dodeca-2,4,6-trien-5-ylamino)pyrimidine] | 2000 to 10000
COc1cc(Nc2nccc(Nc3cnc4c(C(F)(F)F)cccc4c3)n2)ccc1OCCCN1CCCCC1 [Compound 5, 2-[3-methoxy-4-(3-piperidinopropoxy)phenylamino]-4-[8-(trifluoromethyl)-3-quinolylamino]pyrimidine] | ≤ 500
COc1cc(Nc2nccc(Nc3cnc4ccc(OC(F)(F)F)cc4c3)n2)ccc1OCCCN1CCCCC1 [Compound 6, 2-[3-methoxy-4-(3-piperidinopropoxy)phenylamino]-4-(6-trifluoromethoxy-3-quinolylamino)pyrimidine] | ≤ 500
COc1cc(Nc2nccc(Nc3cnc4c(OC(F)(F)F)cccc4c3)n2)ccc1O[C@H]1C[C@H](N(C)C)C1 [Compound 7, 2-{3-methoxy-4-[(1r,3r)-3-(dimethylamino)cyclobutoxy]phenylamino}-4-(8-trifluoromethoxy-3-quinolylamino)pyrimidine] | ≤ 500
COc1cc(Nc2nccc(Nc3cnc4cc(OC(F)(F)F)ccc4c3)n2)ccc1O[C@H]1C[C@H](N(C)C)C1 [Compound 8, 2-{3-methoxy-4-[(1r,3r)-3-(dimethylamino)cyclobutoxy]phenylamino}-4-(7-trifluoromethoxy-3-quinolylamino)pyrimidine] | ≤ 500
COc1cc(Nc2nccc(Nc3cnc4cc(NC(C)=O)ccc4c3)n2)ccc1O[C@H]1C[C@@H](N(C)C)C1 [Compound 9, N-[3-(2-{3-methoxy-4-[(1s,3s)-3-(dimethylamino)cyclobutoxy]phenylamino}-4-pyrimidinylamino)-7-quinolyl]acetamide] | ≤ 500
COc1cc(Nc2nccc(Nc3cc4ccccc4[nH]c3=O)n2)cnc1O[C@H]1C[C@@H](N(C)C)C1 [Compound 11, 3-(2-{5-methoxy-6-[(1s,3s)-3-(dimethylamino)cyclobutoxy]-3-pyridylamino}-4-pyrimidinylamino)-2(1H)-quinolinone] | ≤ 500
COc1cc(Nc2nccc(Nc3cnc4cc(N)ccc4c3)n2)ccc1O[C@H]1C[C@@H](N(C)C)C1 [Compound 12, 4-(7-amino-3-quinolylamino)-2-{3-methoxy-4-[(1s,3s)-3-(dimethylamino)cyclobutoxy]phenylamino}pyrimidine] | ≤ 500
COc1cc(Nc2nccc(Nc3cnc4ccccc4c3)n2)ccc1OCCCN1CCOCC1 [Compound 14, 2-[3-methoxy-4-(3-morpholinopropoxy)phenylamino]-4-(3-quinolylamino)pyrimidine] | ≤ 500
COc1cc(Nc2nccc(Nc3cnc4ccccc4c3)n2)ccc1O[C@H]1CC[C@H](N2CCOCC2)CC1 [Compound 16, 2-{3-methoxy-4-[(1r,4r)-4-morpholinocyclohexyloxy]phenylamino}-4-(3-quinolylamino)pyrimidine] | ≤ 500
COc1cc(Nc2nccc(Nc3cnc4ccccc4c3)n2)ccc1O[C@H]1CC[C@@H](N2CCOCC2)CC1 [Compound 18, 2-{3-methoxy-4-[(1s,4s)-4-morpholinocyclohexyloxy]phenylamino}-4-(3-quinolylamino)pyrimidine] | ≤ 500
COc1cc(O[C@H]2C[C@@H](N(C)C)C2)ccc1Nc1nccc(Nc2cnc3ccccc3c2)n1 [Compound 19, 2-{2-methoxy-4-[(1s,3s)-3-(dimethylamino)cyclobutoxy]phenylamino}-4-(3-quinolylamino)pyrimidine] | ≤ 500
COc1cc(OCCCN2CCCCC2)ccc1Nc1nccc(Nc2cnc3ccccc3c2)n1 [Compound 20, 2-[2-methoxy-4-(3-piperidinopropoxy)phenylamino]-4-(3-quinolylamino)pyrimidine] | ≤ 500
COc1cc(Nc2nccc(Nc3cnc4ccccc4c3)n2)ccc1O[C@H]1C[C@H](N2CCOCC2)C1 [Compound 22, 2-{3-methoxy-4-[(1r,3r)-3-morpholinocyclobutoxy]phenylamino}-4-(3-quinolylamino)pyrimidine] | ≤ 500

Molecule | IC50 [nM]
COc1cc(Nc2nccc(Nc3cnc4c(c3)OCCO4)n2)ccc1O[C@H]1C[C@H](N2CCOCC2)C1 [Compound 23, 4-(2,3-dihydro-1,4-dioxa-5-aza-7-naphthylamino)-2-{3-methoxy-4-[(1r,3r)-3-morpholinocyclobutoxy]phenylamino}pyrimidine] | ≤ 500
COc1cc(Nc2nccc(Nc3cnc4ccccc4c3)n2)ccc1O[C@H]1C[C@H](N2CCS(=O)(=O)CC2)C1 [Compound 24] | ≤ 500
COc1cc(Nc2nccc(Nc3cnc4ccc(Cl)cc4c3)n2)ccc1O[C@H]1C[C@H](N2CCS(=O)(=O)CC2)C1 [Compound 25, 4-[(1r,3r)-3-{4-[4-(6-chloro-3-quinolylamino)-2-pyrimidinylamino]-2-methoxyphenoxy}cyclobutyl]-1λ^6,4-thiazinane-1,1-dione] | ≤ 500
c1ccc2ncc(Nc3ccnc(Nc4ccc(O[C@H]5C[C@H](N6CCOCC6)C5)cc4)n3)cc2c1 [Compound 26, 4-(3-quinolylamino)-2-{p-[(1r,3r)-3-morpholinocyclobutoxy]phenylamino}pyrimidine] | ≤ 500
CN(C)[C@H]1C[C@H](Oc2ccc(Nc3nccc(Nc4cnc5ccccc5c4)n3)cc2)C1 [Compound 27, 4-(3-quinolylamino)-2-{p-[(1r,3r)-3-(dimethylamino)cyclobutoxy]phenylamino}pyrimidine] | ≤ 500
c1ccc2ncc(Nc3ccnc(Nc4ccc(O[C@H]5C[C@@H](N6CCOCC6)C5)cc4)n3)cc2c1 [Compound 28, 4-(3-quinolylamino)-2-{p-[(1s,3s)-3-morpholinocyclobutoxy]phenylamino}pyrimidine] | ≤ 500
CN1[C@@H]2COC[C@H]1C[C@@H](Oc1ccc(Nc3nccc(Nc4cnc5ccccc5c4)n3)cc1)C2 [Compound 29, 2-(p-{(1R,5S,7r)-9-methyl-3-oxa-9-azabicyclo[3.3.1]non-7-yloxy}phenylamino)-4-(3-quinolylamino)pyrimidine] | ≤ 500
CN1[C@@H]2COC[C@H]1C[C@H](Oc1ccc(Nc3nccc(Nc4cnc5ccccc5c4)n3)cc1)C2 [Compound 30, 2-(p-{(1R,5S,7s)-9-methyl-3-oxa-9-azabicyclo[3.3.1]non-7-yloxy}phenylamino)-4-(3-quinolylamino)pyrimidine] | ≤ 500
c1ccc2ncc(Nc3ccnc(Nc4ccc(OCCCN5CCOCC5)nc4)n3)cc2c1 [Compound 31, 2-[6-(3-morpholinopropoxy)-3-pyridylamino]-4-(3-quinolylamino)pyrimidine] | ≤ 500
COc1cc(Nc2nccc(Nc3cnc4ccc(Br)cc4c3)n2)ccc1O[C@H]1CC[C@@H](N2CCOCC2)CC1 [Compound 32, 4-(6-bromo-3-quinolylamino)-2-{3-methoxy-4-[(1s,4s)-4-morpholinocyclohexyloxy]phenylamino}pyrimidine] | ≤ 500
COc1cc(Nc2nccc(Nc3cnc4ccc(Br)cc4c3)n2)ccc1O[C@H]1CC[C@@H](N(C)C)CC1 [Compound 33, 4-(6-bromo-3-quinolylamino)-2-{3-methoxy-4-[(1s,4s)-4-(dimethylamino)cyclohexyloxy]phenylamino}pyrimidine] | ≤ 500
CN(C)[C@H]1C[C@H](Oc2ccc(Nc3nccc(Nc4cnc5ccccc5c4)n3)cc2Br)C1 [Compound 34, 2-{3-bromo-4-[(1r,3r)-3-(dimethylamino)cyclobutoxy]phenylamino}-4-(3-quinolylamino)pyrimidine] | ≤ 500
CN(C)[C@H]1C[C@H](Oc2ccc(Nc3nccc(Nc4cnc5ccccc5c4)n3)cc2Cl)C1 [Compound 35, 2-{3-chloro-4-[(1r,3r)-3-(dimethylamino)cyclobutoxy]phenylamino}-4-(3-quinolylamino)pyrimidine] | ≤ 500
CN(C)[C@H]1C[C@H](Oc2ccc(Nc3nccc(Nc4cnc5ccccc5c4)n3)cc2C(F)(F)F)C1 [Compound 36, 4-(3-quinolylamino)-2-{4-[(1r,3r)-3-(dimethylamino)cyclobutoxy]-3-(trifluoromethyl)phenylamino} pyrimidine] | ≤ 500
COc1cc(Nc2nccc(Nc3cnc4ccccc4c3)n2)ccc1OC1CN(C)C1 [Compound 37, 2-[3-methoxy-4-(1-methyl-3-azetidinyloxy)phenylamino]-4-(3-quinolylamino)pyrimidine] | ≤ 500
